For assay [1], the system named is kidney disease model rats. The experiment in a line: Action to lower blood pressure in kidney disease model rats. The conditions noted are these: 20 mg/kg oral. The format is in vivo, Sprague-Dawley female rats. The method, then:
(§1) In this Example, an action to lower blood pressure was evaluated. That is, each of 2-ethoxy-1-[[4'- (2'-N,N-dimethylamino-ethoxycarbonyl) phenyl]methyl]-1H-benzimidazole-6-carboxylic acid morpholide (Compound No. 13) prepared in Example 6, 2-ethoxy-1-[[4'-(2"-morpholinoethoxycarbonyl)-phenyl]methyl]-1H-benzimidazole-6-carboxylic acid piperidinamide (Compound No. 57) prepared in Example 28, or the reference substance was forcibly orally administered to kidney disease model rats, and the action of lowering the blood pressure was observed. The kidney disease model rats were prepared by a ligature of branches of renal artery in accordance with a conventional method. Namely, the left hilum renalis of Sprague-Dawley female rats was exposed under anesthesia, and one of four secondary branches of the renal artery was left unligated, while the remaining three branches were ligated, respectively. After a week, the hilum renalis (artery, vein, and ureter) of the right kidney were further ligated to thereby prepare rats whose renal function was lowered to approximately 1/8 of the normal function. Each group consisted of eight rats. The drugs to be tested (20 mg/kg) were administered to each administering group, and only water was administered to a control group. Two days after the administration, the systolic blood pressure was measured by the tail cuff method using a blood pressure measuring apparatus (UR^5000; Ueda).

The subject of assay [2] is kidney disease model rats. In words: Action to kidney diseases, renal function indicatory values. In kind it is in vivo, Sprague-Dawley female rats. The conditions noted are these: 20 mg/kg/day, two weeks. The method, then: The kidney disease model rats were prepared by a ligature of branches of renal artery in accordance with a conventional method. Namely, the left hilum renalis of Sprague-Dawley female rats was exposed under anesthesia, and one of four secondary branches of the renal artery was left unligated, while the remaining three branches were ligated, respectively. After a week, the hilum renalis (artery, vein, and ureter) of the right kidney were further ligated to thereby prepare rats whose renal function was lowered to approximately 1/8 of the normal function. Each group consisted of eight rats. The drugs to be tested (20 mg/kg) were administered to each administering group, and only water was administered to a control group. Two days after the administration, the systolic blood pressure was measured by the tail cuff method using a blood pressure measuring apparatus (UR^5000; Ueda).
In this Example, an action to kidney diseases was evaluated on the basis of a renal function indicatory value.
Fifteen groups (8 rats per group) were prepared in a manner such that there was no major difference between the groups in the serum creatinine value and the blood urea nitrogen value indicating renal function. The rats in each group were allowed to freely take up food and water. […] To the rats in the control group, only water was forcibly orally administered every day. After two weeks, 0.2 ml of blood was collected from the carotid artery of the rats under anesthesia, and centrifuged to obtain serum. Using 25 μl of the serum, the serum creatinine (Scr) was measured by a creatinine analytical instrument (Beckman). Using 10 μl of the serum, the blood urea nitrogen (BUN) was measured by a BUN analytical instrument (Beckman). The creatinine clearance was evaluated as follows:
After the serum creatinine measurement, rats were placed in urinary metabolic cages for 24 hours to collect urine. A urinary creatine concentration (Ucr) was measured by a creatinine analytical instrument, and a total volume of urination (Uvol) was also measured. The creatinine clearance (CCr) was calculated by the following formula: [formula]
In the above formula, the unit of "Ucr" and "Scr" is "mg/ml" and the unit of "Uvol" is "ml".

Assay [3] deals with kidney disease model rats. The experiment in a line: Survival time of kidney diseased animals. In kind it is in vivo, Sprague-Dawley female rats. The following applies: 20 mg/kg/day; observation period eight weeks (upper limit); control 5.0. The method, then:
as §1
In this Example, an action to survival time of kidney diseased animals was evaluated. As compounds to be examined, 2-ethoxy-1-[[4'-(2"-N,N-dimethylamino-ethoxycarbonyl)-phenyl]methyl]-1H-benzimidazole-6-carboxylic acid morpholide (Compound No. 13) prepared in Example 6, and 2-ethoxy-1-[[4'-(2"-morpholinoethoxycarbonyl)phenyl]methyl]-1H-benzimidazole-6-carboxylic acid piperidinamide (Compound No. 57) prepared in Example 28 were used.
The kidney disease model rats were prepared as in Example 38. Fifteen groups (8 rats per group) were prepared in a manner such that there was no major difference between the groups in the serum creatinine value and the blood urea nitrogen value indicating renal function. The rats in each group were allowed to freely take up food and water. […] To the rats in the control group, only water was forcibly orally administered every day. If kidney diseases are aggravated, the rat will die of uremia. Thus, the survival time was observed as a comprehensive indication of the improvement of the effect on the kidney diseases. The observation period was eight weeks. Thus if all rats survived, the average survival time is eight weeks, and is an upper limit.

For assay [4], the system named is rat suffering from a kidney disease. The following applies: J. Clinical Invest., 90: 766-771, 1992; cited from earlier work.
Assay [5] deals with rat suffering from hyperlipemia. The following applies: Nephron, 65: 426-432, 1993, cited from earlier work.

Read-outs that look alike come from different tables or passages of the source.

On to `CCCCc1nc(Cl)c(CO)n1Cc1ccc(-c2ccccc2-c2nnn[nH]2)cc1` [DuP753, 2-butyl-4-chloro-5-(hydroxymethyl)-1-[[2'-(1H-tetrazole-5-yl)biphenyl-4-yl]methyl]imidazole, reference compound], for which the “action of lowering the blood pressure” value in assay [1] (in comparison with the control group) is listed as “clearly exhibited the action of lowering the blood pressure”. The Blood pressure in assay [1] (systolic, tail cuff, average, two days after administration, control 210) is 130 mmHg. In assay [2] (control 0.22), this compound came in with a Creatinine clearance of 0.32 mL/min. In assay [2] (serum, control 2.0), this compound had a Creatinine of 1.6 mg/dL. This compound also returned a Blood urea nitrogen in assay [2] (serum, control 100) of 80 mg/dL. Also, in assay [3], the Average survival time came to 6.9 weeks. Moreover, in assay [4], the “effect in proteinuria and glomerulosclerosis” value is “effective in proteinuria and glomerulosclerosis”; the “lowering of the blood pressure” value was “explicit lowering of the blood pressure”. Further, in assay [5] (higher dose), the “lowering of the blood pressure” value is listed as “explicit lowering of the blood pressure” and the renal lesion result is reported as “more effective in the renal lesion”. Besides, in assay [5] (lower dose), the “influence on the blood pressure” value is listed as “without a substantial influence on the blood pressure” and the renal lesion result is given as “renal lesion is improved”.

(Values after US6242445A, “Benzimidazole derivative” (Kureha Chemical Industry Co., Ltd., priority 1998, dated 2001).)
